Experiments:
Assay in all cases: cells
Assay type in all cases: functional, cell-based
[1] = tested on: COLO-792; settings: Homo sapiens
Description: SANGER: Inhibition of human COLO-792 cell growth in a cell viability assay.

[2] = tested on: D-336MG; settings: Homo sapiens
Description: SANGER: Inhibition of human D-336MG cell growth in a cell viability assay.

[3] = tested on: DU-145; settings: Homo sapiens
Description: SANGER: Inhibition of human DU-145 cell growth in a cell viability assay.

[4] = tested on: Detroit 562; settings: Homo sapiens;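 note: growth inhibition of human Detroit 562 cells, read out by a cell viability assay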
Description: SANGER: Inhibition of human Detroit562 cell growth in a cell viability assay.

[5] = tested on: EFM-19; settings: Homo sapiens;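 note: growth inhibition of human EFM-19 cells, measured in a cell viability assay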
Description: SANGER: Inhibition of human EFM-19 cell growth in a cell viability assay.

[6] = tested on: EFO-27; settings: Homo sapiens;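 note: growth inhibition of EFO-27 cells, read out with a cell viability assay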
Description: SANGER: Inhibition of human EFO-27 cell growth in a cell viability assay.

[7] = tested on: ESS-1; settings: Homo sapiens;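 note: growth inhibition of human ESS-1 cells, read out by a cell viability assay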
Description: SANGER: Inhibition of human ESS-1 cell growth in a cell viability assay.

[8] = tested on: GP5d; settings: Homo sapiens;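 note: growth inhibition of human GP5d cells, read out with a cell viability assay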
Description: SANGER: Inhibition of human GP5d cell growth in a cell viability assay.

[9] = tested on: H4; settings: Homo sapiens
Description: SANGER: Inhibition of human H4 cell growth in a cell viability assay.

[10] = tested on: HCC1419; settings: Homo sapiens;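 note: growth inhibition of human HCC1419 cells, read out as cell viability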
Description: SANGER: Inhibition of human HCC1419 cell growth in a cell viability assay.

[11] = tested on: HCC1937; settings: Homo sapiens;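 note: growth inhibition measured with a cell viability read-out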
Description: SANGER: Inhibition of human HCC1937 cell growth in a cell viability assay.

[12] = tested on: HCC 2998; settings: Homo sapiens;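 note: growth inhibition of human HCC2998 cells, measured with a cell viability read-out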
Description: SANGER: Inhibition of human HCC2998 cell growth in a cell viability assay.

[13] = tested on: HMV-2 cell line; settings: Homo sapiens;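 note: growth inhibition of HMV-II cells, read out with a cell viability assay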
Description: SANGER: Inhibition of human HMV-II cell growth in a cell viability assay.

[14] = tested on: HN; settings: Homo sapiens
Description: SANGER: Inhibition of human HN cell growth in a cell viability assay.

[15] = tested on: HOP-92; settings: Homo sapiens;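 note: cell viability readout, with IC50 reflecting inhibition of HOP-92 cell growth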
Description: SANGER: Inhibition of human HOP-92 cell growth in a cell viability assay.

[16] = tested on: HSC-4; settings: Homo sapiens;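 note: growth inhibition of human HSC-4 cells, read out with a cell viability assay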
Description: SANGER: Inhibition of human HSC-4 cell growth in a cell viability assay.

[17] = tested on: HT-1080; settings: Homo sapiens
Description: SANGER: Inhibition of human HT-1080 cell growth in a cell viability assay.

[18] = tested on: HT-3; settings: Homo sapiens;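 note: growth inhibition measured with a cell viability readout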
Description: SANGER: Inhibition of human HT-3 cell growth in a cell viability assay.

[19] = tested on: HT55; settings: Homo sapiens;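 note: cell viability readout measuring growth inhibition of human HT55 cells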
Description: SANGER: Inhibition of human HT55 cell growth in a cell viability assay.

[20] = tested on: HuO9; settings: Homo sapiens;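 note: growth inhibition of HuO9 cells, read out with a cell viability assay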
Description: SANGER: Inhibition of human HuO9 cell growth in a cell viability assay.

[21] = tested on: IGR-1; settings: Homo sapiens;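 note: growth inhibition of human IGR-1 cells, read out with a cell viability assay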
Description: SANGER: Inhibition of human IGR-1 cell growth in a cell viability assay.

[22] = tested on: IGROV-1; settings: Homo sapiens;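 note: reduction of IGROV-1 cell growth, read out with a viability assay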
Description: SANGER: Inhibition of human IGROV-1 cell growth in a cell viability assay.

[23] = tested on: Kasumi 1; settings: Homo sapiens;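 note: growth inhibition of human Kasumi-1 cells, read out by a cell viability assay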
Description: SANGER: Inhibition of human KASUMI-1 cell growth in a cell viability assay.

[24] = tested on: KOSC-2; settings: Homo sapiens;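 note: growth inhibition of KOSC-2 cells, read out by a cell viability assay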
Description: SANGER: Inhibition of human KOSC-2 cell growth in a cell viability assay.

[25] = tested on: KP-4; settings: Homo sapiens;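 note: human KP-4 cells, with growth inhibition read out through a cell viability assay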
Description: SANGER: Inhibition of human KP-4 cell growth in a cell viability assay.

[26] = tested on: LCLC-97TM1; settings: Homo sapiens;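 note: cell viability assay measuring growth inhibition of human LCLC-97TM1 cells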
Description: SANGER: Inhibition of human LCLC-97TM1 cell growth in a cell viability assay.

[27] = tested on: LoVo; settings: Homo sapiens;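 note: growth inhibition of human LoVo cells, read out with a cell viability assay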
Description: SANGER: Inhibition of human LoVo cell growth in a cell viability assay.

[28] = tested on: M059J; settings: Homo sapiens;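 note: growth inhibition of M059J cells, read out with a cell viability assay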
Description: SANGER: Inhibition of human M059J cell growth in a cell viability assay.

[29] = tested on: NCI-H1437; settings: Homo sapiens;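 note: growth inhibition of human NCI-H1437 cells, read out by a cell viability assay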
Description: SANGER: Inhibition of human NCI-H1437 cell growth in a cell viability assay.

[30] = tested on: NCI-H1755; settings: Homo sapiens;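 note: cell viability readout used to measure growth inhibition of NCI-H1755 cells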
Description: SANGER: Inhibition of human NCI-H1755 cell growth in a cell viability assay.

[31] = tested on: NCI-H2009; settings: Homo sapiens;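 note: cell viability assay measuring inhibition of NCI-H2009 cell growth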
Description: SANGER: Inhibition of human NCI-H2009 cell growth in a cell viability assay.

[32] = tested on: NCI-H2052; settings: Homo sapiens;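 note: growth inhibition of NCI-H2052 cells, read out with a cell viability assay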
Description: SANGER: Inhibition of human NCI-H2052 cell growth in a cell viability assay.

[33] = tested on: NCI-H2087; settings: Homo sapiens;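 note: growth inhibition determined with a cell viability readout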
Description: SANGER: Inhibition of human NCI-H2087 cell growth in a cell viability assay.

[34] = tested on: NCI-H2452; settings: Homo sapiens;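 note: growth inhibition of NCI-H2452 cells, read out with a cell viability assay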
Description: SANGER: Inhibition of human NCI-H2452 cell growth in a cell viability assay.

[35] = tested on: NCI-H460; settings: Homo sapiens;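 note: cell viability assay scoring growth inhibition of human NCI-H460 cells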
Description: SANGER: Inhibition of human NCI-H460 cell growth in a cell viability assay.

[36] = tested on: NCI-H650; settings: Homo sapiens;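 note: growth inhibition of NCI-H650 cells, read out by a viability assay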
Description: SANGER: Inhibition of human NCI-H650 cell growth in a cell viability assay.

[37] = tested on: OAW-42; settings: Homo sapiens;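 note: growth inhibition of OAW-42 cells, read out with a cell viability assay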
Description: SANGER: Inhibition of human OAW-42 cell growth in a cell viability assay.

[38] = tested on: OVCAR-5; settings: Homo sapiens;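 note: growth inhibition of human OVCAR-5 cells, read out with a cell viability assay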
Description: SANGER: Inhibition of human OVCAR-5 cell growth in a cell viability assay.

[39] = tested on: RO82-W-1; settings: Homo sapiens;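 note: growth inhibition of human RO82-W-1 cells, measured with a cell viability assay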
Description: SANGER: Inhibition of human RO82-W-1 cell growth in a cell viability assay.

[40] = tested on: SJRH30; settings: Homo sapiens;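 note: growth inhibition of human SJRH30 cells, read out with a cell viability assay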
Description: SANGER: Inhibition of human SJRH30 cell growth in a cell viability assay.

[41] = tested on: SK-MEL-24; settings: Homo sapiens;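 note: growth inhibition read out by a cell viability assay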
Description: SANGER: Inhibition of human SK-MEL-24 cell growth in a cell viability assay.

[42] = tested on: T84; settings: Homo sapiens;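 note: growth inhibition measured with a cell viability readout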
Description: SANGER: Inhibition of human T84 cell growth in a cell viability assay.

[43] = tested on: CWR22R; settings: Homo sapiens, 22Rv1;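 note: growth inhibition of 22Rv1 cells, read out with a cell viability assay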
Description: SANGER: Inhibition of human 22RV1 cell growth in a cell viability assay.

[44] = tested on: A2780; settings: Homo sapiens;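 note: growth inhibition of A2780 cells, read out with a cell viability assay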
Description: SANGER: Inhibition of human A2780 cell growth in a cell viability assay.

[45] = tested on: AU565; settings: Homo sapiens;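 note: cell viability assay measuring growth inhibition of human AU565 cells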
Description: SANGER: Inhibition of human AU565 cell growth in a cell viability assay.

[46] = tested on: BCPAP; settings: Homo sapiens;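 note: growth inhibition of BCPAP cells, read out in a cell viability assay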
Description: SANGER: Inhibition of human BCPAP cell growth in a cell viability assay.

[47] = tested on: BXPC-3; settings: Homo sapiens;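 note: growth inhibition of human BxPC-3 cells, read out by a cell viability assay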
Description: SANGER: Inhibition of human BxPC-3 cell growth in a cell viability assay.

[48] = tested on: CAL-27; settings: Homo sapiens;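 note: Viability-based readout, IC50 reflecting inhibition of CAL-27 cell growth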
Description: SANGER: Inhibition of human CAL-27 cell growth in a cell viability assay.

[49] = tested on: VM-CUB-1; settings: Homo sapiens;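 note: cell viability assay measuring growth inhibition of the human VM-CUB-1 cell line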
Description: SANGER: Inhibition of human VM-CUB-1 cell growth in a cell viability assay.

[50] = tested on: YAPC; settings: Homo sapiens;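 note: growth inhibition of YAPC cells, measured with a cell viability assay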
Description: SANGER: Inhibition of human YAPC cell growth in a cell viability assay.

[51] = tested on: COLO-679; settings: Homo sapiens
Description: SANGER: Inhibition of human COLO-679 cell growth in a cell viability assay.

Cn1cc(/C=C2\C(=O)Nc3cccnc32)c2ccccc21
IC50 [1]: > 2 µM | IC50 [2]: > 2 µM | IC50 [3]: > 2 µM | IC50 [4]: > 2 µM | IC50 [5]: > 2 µM | IC50 [6]: > 2 µM | IC50 [7]: > 2 µM | IC50 [8]: > 2 µM | IC50 [9]: > 2 µM | IC50 [10]: > 2 µM | IC50 [11]: > 2 µM | IC50 [12]: > 2 µM | IC50 [13]: > 2 µM | IC50 [14]: > 2 µM | IC50 [15]: > 2 µM | IC50 [16]: 1.95 µM | IC50 [17]: > 2 µM | IC50 [18]: > 2 µM | IC50 [19]: > 2 µM | IC50 [20]: > 2 µM | IC50 [21]: > 2 µM | IC50 [22]: > 2 µM | IC50 [23]: > 2 µM | IC50 [24]: > 2 µM | IC50 [25]: > 2 µM | IC50 [26]: > 2 µM | IC50 [27]: > 2 µM | IC50 [28]: > 2 µM | IC50 [29]: > 2 µM | IC50 [30]: > 2 µM | IC50 [31]: > 2 µM | IC50 [32]: > 2 µM | IC50 [33]: > 2 µM | IC50 [34]: > 2 µM | IC50 [35]: > 2 µM | IC50 [36]: > 2 µM | IC50 [37]: > 2 µM | IC50 [38]: > 2 µM | IC50 [39]: > 2 µM | IC50 [40]: > 2 µM | IC50 [41]: > 2 µM | IC50 [42]: > 2 µM | IC50 [43]: > 2 µM | IC50 [44]: > 2 µM | IC50 [45]: > 2 µM | IC50 [46]: > 2 µM | IC50 [47]: > 2 µM | IC50 [48]: > 2 µM | IC50 [49]: > 2 µM | IC50 [50]: > 2 µM | IC50 [51]: > 2 µM

O=c1cc(N2CCOCC2)oc2c(-c3cccc4c3sc3ccccc34)cccc12
IC50 [1]: > 2 µM | IC50 [2]: > 2 µM | IC50 [3]: > 2 µM | IC50 [4]: > 2 µM | IC50 [5]: > 2 µM | IC50 [6]: > 2 µM | IC50 [7]: > 2 µM | IC50 [8]: > 2 µM | IC50 [9]: > 2 µM | IC50 [10]: > 2 µM | IC50 [11]: > 2 µM | IC50 [12]: > 2 µM | IC50 [13]: > 2 µM | IC50 [14]: > 2 µM | IC50 [15]: > 2 µM | IC50 [17]: > 2 µM | IC50 [18]: > 2 µM | IC50 [19]: > 2 µM | IC50 [20]: > 2 µM | IC50 [21]: > 2 µM | IC50 [22]: > 2 µM | IC50 [24]: > 2 µM | IC50 [25]: > 2 µM | IC50 [26]: > 2 µM | IC50 [27]: 0.867 µM | IC50 [28]: > 2 µM | IC50 [29]: > 2 µM | IC50 [30]: > 2 µM | IC50 [31]: > 2 µM | IC50 [32]: > 2 µM | IC50 [33]: > 2 µM | IC50 [34]: > 2 µM | IC50 [35]: > 2 µM | IC50 [36]: > 2 µM | IC50 [37]: > 2 µM | IC50 [38]: > 2 µM | IC50 [39]: > 2 µM | IC50 [40]: > 2 µM | IC50 [41]: > 2 µM | IC50 [42]: > 2 µM | IC50 [43]: > 2 µM | IC50 [44]: > 2 µM | IC50 [45]: > 2 µM | IC50 [46]: > 2 µM | IC50 [47]: > 2 µM | IC50 [48]: > 2 µM | IC50 [49]: > 2 µM | IC50 [50]: > 2 µM | IC50 [51]: > 2 µM

— ChEMBL document CHEMBL1201861, “Genomics of Drug Sensitity in Cancer screening data, Wellcome Trust Sanger Institute”
